Experimental data: US20060281807A1, “Quassinoid compositions for the treatment of cancer and other proliferative diseases” (Tapestry Pharmaceuticals, Inc., priority 2005, published 2006)
In brackets after ≈: the same amount, converted by molar mass. Several values for one entry are separate records, joined by “and”; a condition that tells them apart may be missing. Equal values may be shown once. Read-outs that look alike come from different tables or passages of the source.

Key:
[1] = Maximum tolerated dose in mice; settings: for MTD / MTD at 30 days: mouse, in vivo, iv
Procedure: Formulations containing 15-O-(3′-hydroxy-3′-isopropyl-4′-methylpentanoyl)bruceolide, 15-(3-isopropyl-4-methyl-2-pentenoyl)-bruceolide, and, for comparative purposes, bruceantin, or peninsularinone were prepared by solubilizing each compound in up to 100 mg/mL of ethanol. These solutions were diluted 1:1 with a stabilizer (Cremophor/propylene glycol). The solutions were then diluted in saline (1:10 minimum).
The maximum tolerated dose (MTD) was determined by a two-stage experiment. In the first stage, between 1 and 10 mg/mL of the formulation was prepared as described above. Next, 0.25 mL of the formulation was injected intravenously into one 20 gram mouse (0.75 mg/mouse). If the animal died within 30 days of injection, a series of subsequent 2-fold dilutions were administered to individual mice until an MTD was defined. […] The second stage of the study involved increasing the number of mice per dose to four, and retesting four dilutions that bracket the MTD from the individual mouse study. The four dilutions were the MTD, a dosage twice the MTD, a dosage ½ the MTD, and a dosage ¼ the MTD.

[2] = tested on: HCT-116 cells; assay: HCT-116 cytotoxicity, viable cell count by trypan blue; format: cell-based, human; settings: for IC90/IC50: HCT-116; for IC50 / IC90: Homo sapiens
[3] = tested on: L1210 (murine leukemia); assay: Disk diffusion assay, zone of inhibition, L1210; format: cell-based; settings: 1 mg/mL
Procedure: (§1) A disk diffusion assay was performed to define the differential cell killing ability of 15-O-(3′-hydroxy-3′-isopropyl-4′-methylpentanoyl)bruceolide. Seven cell types were assayed: L1210 (ATCC CCL-219) (murine leukemia), CCRF-CEM (ATCC CCL-119) (human leukemia), Colon 38 (murine colon adenocarcinoma), HCT116 (ATCC CCL-247) (human colorectal carcinoma), H125 (human lung carcinoma). The murine and human granulocyte/macrophage progenitor cell line (CFU-GM), served as controls.
(§2) Colon 38 cells (about 1 gram) were cut into small fragments in 15 mL of Hank's Balanced Salt Solution (HBSS) over a 100-mesh sieve and gently forced through by the scissors with HBSS constantly perfusing the sieve. The resulting material was then drawn into and out of a 5 mL syringe without a needle to further disperse the cell clumps. The cell solution was diluted and plated in 0.3% agarose in DMEM plus 10% heat-inactivated Bovine Calf Serum (BCS). For plating of all of the cell types (except controls), the 60 mm plates were first prepared with a hard agar bottom layer (0.6% agar in RPMI-1640 plus 15% BCS).
(§3) A 15 μl sample of each compound was dropped onto a 6.5 mm disk (Baxter filter disks). The disks were allowed to dry overnight and then placed close to the edge of a petri dish. Depending upon the cell type, the dishes were incubated for 7 to 10 days, and examined by an inverted stereo-microscope (10×) for measurement of the zone of inhibition. The zone of inhibition was measured from the edge of the filter disk to the beginning of normal-sized colony formation. The diameter of the filter disk, 6.5 mm, was arbitrarily taken as a zone of 200 units. Compounds that were selective for killing solid tumors, as compared to leukemia or normal cells (“solid tumor selective”) were defined as those compounds which produced a difference in zones between solid tumor cells and either normal or leukemia cells of at least 250 units. The results of this analysis are set forth in Table 4, which illustrates the relative diameters of the zones of inhibition by various drugs on the growth of the respective cell types at various drug dilutions.

[4] = tested on: CCRF-CEM (human leukemia); assay: Disk diffusion assay, zone of inhibition, CCRF-CEM; format: cell-based; settings: 1 mg/mL
Procedure: as §1, §2, §3

[5] = tested on: H125 (human lung carcinoma); assay: Disk diffusion assay, zone of inhibition, H125; format: cell-based; settings: 1 mg/mL
Procedure: as §1, §2
HCT116 and H125 cells were maintained in cell culture, and were removed from culture by a trypsin-collagenase-DNAase cocktail. The plating efficiencies of each cell type was sufficiently high that 30,000 cells in 3 mL produced the desired number of colonies (i.e., over 10,000 per plate) in 60 mm plates. This soft agar top layer (0.3% with the serum and media as above) plus the titrated tumor cells were poured into the plates and allowed to solidify.
as §3

[6] = tested on: human CFU-GM; format: cell-based; settings: 1 mg/mL
Procedure: as §1
For CFU-GM cells, the femoral marrow of BD2F1 mice was flushed with MEM alpha (2 mL per femur). The cells were passed through an 18 gauge needle twice and the monodispersed suspension was counted. A total of 1.5×10^6 cells were plated in 3 mL of 0.3% agar with the addition of 10% L cell conditioned media, which provided colony stimulating factor, in MEM-alpha plus 10% BCS. For human CFU-GM, the cells were obtained from Poietic Technologies, Inc. (Gaithersburg, Md.) and washed twice with PBS before being titered and added to the agar mixture. The same cell number, culture conditions, and conditioning factors used with respect to the murine CFU-GM cells were used with the human cells, except that the cultures were assessed after 10 days of incubation.
as §3

[7] = intravenous, first stage, one mouse per dose
[8] = intravenous, second stage, four mice per dose
[9] = maximum tolerated dose, Dose - 1 Mouse, first stage, one mouse per dose
[10] = maximum tolerated dose, Dose - 4 Mice, second stage, four mice per dose
[11] = no dilution, 15 μl on disk, 6.5 mm = 200 units

Row | SMILES | maximum tolerated dose, Dose - 1 Mouse [1, 7] | maximum tolerated dose, Dose - 4 Mice [1, 8] | IC90/IC50 [2] | zone of inhibition, L1210 ([3]; dilution 1/10) | zone of inhibition, L1210 ([3]; dilution 1/100) | zone of inhibition, L1210 [3, 11] | zone of inhibition, CEM ([4]; dilution 1/10) | zone of inhibition, CEM ([4]; dilution 1/100) | zone of inhibition, H-125 M ([5]; dilution 1/1000) | zone of inhibition, H-125 M [5, 11] | zone of inhibition, human CFU-GM ([6]; dilution 1/10) | zone of inhibition, human CFU-GM ([6]; dilution 1/100) | further results
1 | COC(=O)[C@@]12OC[C@@]34C1[C@@H](OC(=O)CC(O)(C(C)C)C(C)C)C(=O)O[C@@H]3C[C@H]1C(C)=C(O)C(=O)C[C@]1(C)[C@H]4[C@@H](O)[C@@H]2O (stereo partly drawn) [15-O-(3′-hydroxy-3′-isopropyl-4′-methylpentanoyl)bruceolide] | 3.2 mg/mouse | 1.5 mg/mouse | 35 | 550 units | 200 units | 1000 units | 650 units and 700 units | 100 units and 150 units | 0 units | >1000 units | 900 units | 600 units | mice survived the duration of the experiment ([1]; dose of either 1.5 or 0.75 mg/mouse, intravenous (FIG. 6)): 100%; MTD ([1]; MTD, mice): 60 to 65 mg/kg/day; MTD [1, 9]: 109 mg/kg; MTD [1, 10]: 60 mg/kg; IC50 ([2]; 72 h, HCT-116, 3 days with compound, viable cells, by interpolation, read-out: IC50): 1.9 ng/mL (≈ 0.0032 µM); IC90 ([2]; 72 h, HCT-116, 3 days with compound, viable cells, by interpolation, read-out: IC90): 67 ng/mL (≈ 0.113 µM); zone of inhibition, L1210 ([3]; dilution 1/400): 0 units
2 | COC(=O)[C@@]12OC[C@@]34C1[C@@H](OC(=O)C=C(C(C)C)C(C)C)C(=O)O[C@@H]3C[C@H]1C(C)=C(O)C(=O)C[C@]1(C)[C@H]4[C@@H](O)[C@@H]2O (stereo partly drawn) [15-O-(3′-isopropyl-4′-methyl-2′-pentenoyl)-bruceolide] | 0.05 mg/mouse | 0.25 mg/mouse | 7 | 1000 units | 650 units and 600 units | >1000 units | 800 units | 400 units | 100 units | >1000 units | >1000 units | 550 units | mice survived the duration of the experiment ([1]; dose of 0.1, 0.075, 0.05, or 0.025 mg/mouse, intravenous): 100%; MTD at 30 days [1, 9]: 2.9 mg/kg; MTD at 30 days [1, 10]: 4 mg/kg; IC50 ([2]; HCT-116, 72 h): 1.5 ng/mL (≈ 0.0026 µM); IC90 ([2]; HCT-116, 72 h): 10 ng/mL (≈ 0.0173 µM); zone of inhibition, L1210 ([3]; dilution 1/1000): 150 units; zone of inhibition, H-125 M ([5]; dilution 1/10): 1100 units; zone of inhibition, H-125 M ([5]; dilution 1/100): 500 units
